Laboratory results as given in patent US4170649A, “1,4-Benzodiazepine derivatives, pharmaceutical compositions thereof, and process for their preparation” (Kali-Chemie Pharma GmbH, priority 1977, dated 1979).
Read-outs that look alike come from different tables or passages of the source.

What was measured:
[1] = test system: isolation-induced aggressiveness in mice; test: Inhibition of isolation-induced aggressiveness in mice (anti-aggressive and anxiety-relieving activity); format: in vivo; details: Mus musculus, oral, isolated mice, 50% reduction of aggressive behavior
Description: Prior to carrying out the test, the mice are kept in strict isolation in single cages for a period of 4 weeks. After this period of isolation, mice which have been kept isolated spontaneously attack other mice which are introduced into their cage and had not been previously isolated. The test compounds are orally administered to the isolated mice and after a period of 30 minutes or 60 minutes after application, the dose which leads to a 50% reduction of the aggressive behavior is determined (according to a modified method described by Weischer and Opitz, Arch. int. Pharmacodyn. 195, 252 (1972)). The results which are obtained in this test are a valid indication of the activity of the tested compounds in relieving anxiety and stress-induced tensions.

[2] = Acute 7-day toxicity in mice (LD50); details: mouse, in vivo, white NMRI-mice not fed
Description: The acute 7-day-toxicity in white NMRI-mice is determined after administration of a single dose of the test compound per os or i.p. to the mice which had not been fed. The calculation of the LD50 is carried out by probitanalysis by means of electronic data processing (see L. Cavelli-Sforza, Gustav Fischer-Verlag, Stuttgart, (1964), Grundbegriffe der Biometrie, p. 153).

[3] = test system: pentetrazole-induced convulsions; test: Anti-convulsive activity against pentetrazole-induced spasms; format: in vivo; details: Mus musculus; oral, mice; 100 mg/kg pentetrazole s.c. 60 minutes after application; observed 45 minutes; read-out: Inhibition of Pentetrazole-induced convulsions ED50
Description: The protective effect of the test compounds against convulsion is determined after oral application to groups of six (6) mice each. 60 minutes after application of the test compounds, a doses of 100 mg/kg of pentetrazole is subcutaneously injected. The occurrance of clonic and tonic convulsions is observed during a total period of 45 minutes. the protective effect of the test compounds against convulsion is determined by comparison with simultaneously performed tests in control-animals. The effective dose ED50 is calculated from the probitlogarithmic dosage curves (according to a modified method disclosed by J. E. Blum et al, Arzneimittel-Forsch. 23, 377 (1973)).
The results which are obtained according to the above method, provide an indication of the anti-convulsive activity of the test compounds. In the pharmacological art, it is well-known that this anti-convulsive activity in animals is an important criterion for evaluating the clinical tranquilizer activity of compounds (see A. Suria and E. Costa, Journal de Pharmacologie, Suppl. No. 1, 5, 94 (1974) and G. Zbinden and L. O. Randall, Advances in Pharmacol. 5, 257, (1967)). The test results given in Table II show a clear superiority of the compounds according to the present invention as compared to chlordiazepoxide.

[4] = test system: hexobarbital-induced sleep in mice; test: CNS-depressant properties: prolongation of hexobarbital-induced sleep in mice; format: in vivo; details: Mus musculus, 0.5 h, oral, 64 mg/kg hexobarbital i.v. 30 minutes after application, 50% of animals with side-posture 4 times as long as control
Description: The test compounds are orally applied to mice. Additionally, a dose of 64 mg/kg of hexobarbital is injected, i.v., into the animals 30 minutes after application of the test compound. The point of time at which the animals lie down on their side and the duration of this side-posture are determined and are compared with the postural behavior of animals which are treated only with hexobarbital. The ED50 is defined as the dose which causes 50% of the animals to maintain the side-wise posture for a period of time which is 4 times as long as the period of time during which the control animals remain in their side-wise lying posture (see J. W. Kemp, M. Tannhaeuser and E. A. Swinyard, Arch. int. Pharmacodyn. 193 (1971), p. 37-47).

[5] = 0.5 h, 30 minutes after application, read-out: Inhibition of isolation-induced aggressiveness in mice ED50 (30')
[6] = 1 h, 60 minutes after application, read-out: Inhibition of isolation-induced aggressiveness in mice ED50 (60')
[7] = ip, single dose i.p., read-out: LD50 i.p.
[8] = po, single dose per os, read-out: LD50 p.o.

| SMILES | ED50 [1, 5] | ED50 [1, 6] | LD50 at 168 h [2, 7] | LD50 at 168 h [2, 8] | ED50 [3] | ED50 [4] |
| --- | --- | --- | --- | --- | --- | --- |
| CN1C(=CC(N)=O)CN=C(c2ccccc2F)c2cc(Cl)ccc21 [Compound No. 3, 7-chloro-1-methyl-2-carbamoylmethylene-5-(2'-fluorophenyl)-1,3-dihydro-2H-1,4-benzodiazepine] | 2.1 mg/kg | 3.9 mg/kg | 572 mg/kg | > 1470 mg/kg | 0.4 mg/kg | 1.6 mg/kg |
| CN1C(=CC(N)=O)CN=C(c2ccccc2Cl)c2cc(Cl)ccc21 [Compound No. 2, 7-chloro-1-methyl-2-carbamoylmethylene-5-(2'-chlorophenyl)-1,3-dihydro-2H-1,4-benzodiazepine] | 2.2 mg/kg | 3.4 mg/kg | 410 mg/kg | > 1000 mg/kg | 0.1 mg/kg | 5 mg/kg |
| CNC1=Nc2ccc(Cl)cc2C(c2ccccc2)=[N+]([O-])C1 [comparison, 7-chloro-2-methylamino-5-phenyl-3H-1,4-benzodiazepine-4-oxide, reference compound] | 60 mg/kg | 47 mg/kg | 300 mg/kg | 903 mg/kg | 5 mg/kg | 6 mg/kg |
| CN1C(=CC(N)=O)CN=C(c2ccccc2Cl)c2cc(Br)ccc21 [Compound No. 5, 7-bromo-1-methyl-2-carbamoylmethylene-5-(2'-chlorophenyl)-1,3-dihydro-2H-1,4-benzodiazepine] | 5.4 mg/kg | 4.6 mg/kg | > 1600 mg/kg | > 1470 mg/kg | 0.3 mg/kg | 1.3 mg/kg |
| CN1C(=CC(N)=O)CN=C(c2ccccc2C(F)(F)F)c2cc(Cl)ccc21 [Compound No. 4, 7-chloro-1-methyl-2-carbamoylmethylene-5-(2'-trifluoromethylphenyl)-1,3-dihydro-2H-1,4-benzodiazepine] | 31.1 mg/kg | 31.1 mg/kg | 287 mg/kg | > 1470 mg/kg | 0.3 mg/kg | 3.1 mg/kg |
| CN1C(=CC(N)=O)CN=C(c2ccccc2Cl)c2cc([N+](=O)[O-])ccc21 [Compound No. 7, 7-nitro-1-methyl-2-carbamoylmethylene-5-(2'-chlorophenyl)-1,3-dihydro-2H-1,4-benzodiazepine] | – | – | – | > 1470 mg/kg | 1 mg/kg | 2.5 mg/kg |
| CN1C(=CC(N)=O)CN=C(c2ccccc2F)c2cc(Br)ccc21 [Compound No. 6, 7-bromo-1-methyl-2-carbamoylmethylene-5-(2'-fluorophenyl)-1,3-dihydro-2H-1,4-benzodiazepine] | 4.8 mg/kg | 5.7 mg/kg | 574 mg/kg | > 1470 mg/kg | 0.4 mg/kg | 2.6 mg/kg |
| CN1C(=CC(N)=O)CN=C(c2ccccc2)c2cc(Cl)ccc21 [Compound No. 1, 7-chloro-1-methyl-2-carbamoylmethylene-5-phenyl-1,3-dihydro-2H-1,4-benzodiazepine] | 12.2 mg/kg | 9.6 mg/kg | 288 mg/kg | > 1470 mg/kg | 2.4 mg/kg | 3.2 mg/kg |
